The values that follow come from patent publication US20240217990A1 (Gilead Sciences, Inc., priority 2021, published 2024).

For one assay, the target named is T1, TLR7 (Homo sapiens, UniProt Q9NYK1).
T1 construct: Human peripheral blood mononuclear cells (PBMCs) consist of lymphocytes, monocytes and dendritic cells that express TLR7, TLR8 and TLR9; endogenous in cells; host or cells: cryopreserved human PBMCs from healthy donors
T1 sequence (Q9NYK1 27-1049): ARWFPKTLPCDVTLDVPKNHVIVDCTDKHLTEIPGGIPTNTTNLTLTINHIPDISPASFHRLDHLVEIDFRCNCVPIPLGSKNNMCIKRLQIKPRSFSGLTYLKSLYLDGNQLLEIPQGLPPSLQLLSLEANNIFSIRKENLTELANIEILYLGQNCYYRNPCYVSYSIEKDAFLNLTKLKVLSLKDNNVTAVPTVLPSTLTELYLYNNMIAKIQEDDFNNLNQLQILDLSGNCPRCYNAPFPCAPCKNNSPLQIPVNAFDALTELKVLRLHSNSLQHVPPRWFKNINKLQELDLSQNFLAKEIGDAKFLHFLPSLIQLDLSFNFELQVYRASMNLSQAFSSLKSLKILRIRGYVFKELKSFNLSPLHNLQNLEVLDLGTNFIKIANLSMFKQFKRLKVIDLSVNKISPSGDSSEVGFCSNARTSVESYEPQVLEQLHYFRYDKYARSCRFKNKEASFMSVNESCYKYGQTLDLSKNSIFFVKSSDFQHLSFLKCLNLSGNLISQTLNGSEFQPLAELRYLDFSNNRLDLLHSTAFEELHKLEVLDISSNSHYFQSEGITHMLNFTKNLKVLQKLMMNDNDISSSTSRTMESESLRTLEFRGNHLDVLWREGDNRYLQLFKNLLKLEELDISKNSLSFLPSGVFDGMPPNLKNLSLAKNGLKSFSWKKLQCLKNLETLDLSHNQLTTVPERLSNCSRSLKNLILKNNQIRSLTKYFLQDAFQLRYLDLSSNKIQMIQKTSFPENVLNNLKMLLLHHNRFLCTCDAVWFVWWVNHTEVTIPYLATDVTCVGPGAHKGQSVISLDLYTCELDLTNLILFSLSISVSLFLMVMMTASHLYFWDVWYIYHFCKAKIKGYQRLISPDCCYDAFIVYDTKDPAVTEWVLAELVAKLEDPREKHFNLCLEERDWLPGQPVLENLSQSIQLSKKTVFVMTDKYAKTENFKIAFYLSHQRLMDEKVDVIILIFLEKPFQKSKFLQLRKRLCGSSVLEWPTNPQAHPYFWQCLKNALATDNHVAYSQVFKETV
In words: TLR7 human PBMC cell-based assay (antagonist, GS-986 stimulated cytokine release). Conditions: human PBMCs; TLR7 agonist GS-986 400 nM, 6 hours; cytokines (IL-6 and IFNα) in supernatant; read-out: TLR-7 EC50. The text has this: (§1) Human peripheral blood mononuclear cells (PBMCs) consist of lymphocytes, monocytes and dendritic cells that express TLR7, TLR8 and TLR9. These cells respond to TLR7, TLR8 and TLR9 ligand stimulation and produce cytokines and chemokines in vitro and in vivo. Human PBMCs are therefore suitable to be used in a cell-based assay to assess the in vitro potency of a TLR 7, 8, and/or 9 antagonist. The result is expected to be more translatable to the pharmacodynamics response in vivo than cell line-based assays.
Cryopreserved human PBMCs from healthy donors were thawed and resuspended in RPMI-1640 media with L-glutamine (Corning) supplemented with 10% Fetal Bovine Serum (Hyclone) and 1× Penicillin-Streptomycin (Corning). After counting, the cell density was adjusted to 2 million cells/ml and incubated for 1 hour at 37° C., 5% CO2 for recovery. Following the recovery, the cells were plated by adding 50 μl per well (100,000 cells) to 384-well cell culture plates (Greiner) containing 250 nl of test antagonists in 100% DMSO per well, in a 10 points dose response in quadruplicates. PBMCs were incubated in the presence of test antagonists for one hour at 37° C., 5% CO2 before being stimulated with a TLR7 or TLR9agonist. GS-986 (Gilead Sciences) was used as the TLR7 agonist at a final concentration of 400 nM. ODN-2216 (InvivoGen) was used as the TLR9 agonist at a final concentration of 3 μM. PBMCs were incubated in the presence of the test antagonist and the TLR7 (or TLR9) agonist for an additional 6 hours at 37° C., 5% CO2. At the end of the incubation, the cell culture plates were centrifuged at 500 g for 5 min, and the cell culture supernatant was collected. The level of cytokines (IL-6 and IFNα) in the supernatant was measured by electrochemiluminescence immunoassays (Mesoscale Discovery) following manufacturer's recommended protocols. The level of cytokine measured was plotted against the test antagonist concentration and fitted to a sigmoidal function to determine the EC50, which are shown below in Table 11.

In the next assay the target is T2, TLR8 (Homo sapiens, UniProt Q9NR97).
T2 construct: Human peripheral blood mononuclear cells (PBMCs) consist of lymphocytes, monocytes and dendritic cells that express TLR7, TLR8 and TLR9; endogenous in cells; host or cells: cryopreserved human PBMCs from healthy donors
T2 sequence (Q9NR97 27-1041): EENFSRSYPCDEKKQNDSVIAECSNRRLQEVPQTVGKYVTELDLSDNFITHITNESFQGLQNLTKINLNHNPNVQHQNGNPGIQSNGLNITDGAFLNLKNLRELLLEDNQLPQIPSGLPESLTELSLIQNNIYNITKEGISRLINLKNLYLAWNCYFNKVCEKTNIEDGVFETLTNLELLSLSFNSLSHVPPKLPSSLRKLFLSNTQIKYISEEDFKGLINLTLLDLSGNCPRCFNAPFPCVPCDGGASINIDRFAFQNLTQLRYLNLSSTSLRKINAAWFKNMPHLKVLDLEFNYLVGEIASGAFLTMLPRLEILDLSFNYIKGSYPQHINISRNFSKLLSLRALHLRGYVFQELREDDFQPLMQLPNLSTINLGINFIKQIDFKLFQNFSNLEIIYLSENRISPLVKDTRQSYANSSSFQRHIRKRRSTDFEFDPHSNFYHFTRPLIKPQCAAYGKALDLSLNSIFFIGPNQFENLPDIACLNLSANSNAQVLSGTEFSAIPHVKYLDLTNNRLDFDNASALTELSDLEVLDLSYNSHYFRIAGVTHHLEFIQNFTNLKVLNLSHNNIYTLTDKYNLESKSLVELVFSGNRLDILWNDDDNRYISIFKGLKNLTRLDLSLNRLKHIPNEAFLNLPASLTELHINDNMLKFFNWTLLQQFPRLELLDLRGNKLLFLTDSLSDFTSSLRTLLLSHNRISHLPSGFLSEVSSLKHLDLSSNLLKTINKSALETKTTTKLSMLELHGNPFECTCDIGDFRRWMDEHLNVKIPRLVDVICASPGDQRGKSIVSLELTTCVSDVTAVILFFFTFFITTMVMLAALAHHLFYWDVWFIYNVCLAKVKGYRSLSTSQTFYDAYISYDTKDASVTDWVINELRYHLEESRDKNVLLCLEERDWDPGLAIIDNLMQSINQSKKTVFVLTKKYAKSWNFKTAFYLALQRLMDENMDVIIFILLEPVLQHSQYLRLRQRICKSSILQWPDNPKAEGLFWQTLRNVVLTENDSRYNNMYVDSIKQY
Nature of the assay: TLR8 human PBMC cell-based assay (antagonist, Compound A stimulated cytokine release). Conditions: human PBMCs; TLR8 agonist Compound A 800 nM, 6 hours; cytokines (TNFa and IL 12p40) in supernatant; read-out: TLR-8 EC50.
Description: as §1
Cryopreserved human PBMCs from healthy donors were thawed and resuspended in RPMI-1640 media with L-glutamine (Corning) supplemented with 10% Fetal Bovine Serum (Hyclone) and 1X Penicillin-Streptomycin (Corning). After counting, the cell density was adjusted to 2 million cells/ml and incubated for 1 hour at 37° C., 5% CO2 for recovery. Following the recovery, the cells were plated by adding 50 μl per well (100,000 cells) to 384-well cell culture plates (Greiner) containing 250 nl of test antagonists in 100% DMSO per well, in a 10 points dose response in quadruplicates. PBMCs were incubated in the presence of antagonists for one hour at 37° C., 5% CO2 before being stimulated with TLR8 agonist. Compound A (Gilead Sciences, U.S. Pat. No. 10,285,990) was used as the TLR8 agonist at a final concentration of 800 nM. PBMCs were incubated in the presence of antagonist and the TLR8 agonist for an additional 6 hours at 37° C., 5% CO2. At the end of the incubation, the cell culture plates were centrifuged at 500 g for 5 min, and the cell culture supernatant was collected. The level of cytokines (TNFa and IL 12p40) in the supernatant was measured by electrochemiluminescence immunoassays (Mesoscale Discovery) following manufacturer's recommended protocols. The level of cytokine measured was plotted against the antagonist concentration and fitted to a sigmoidal function to determine the EC50, which are shown below in Table 11.

pEC50: −log10 of the molar value.

Broadly, the pEC50 is the EC50 on a negative log10 scale, so that one unit is a factor of ten. `Cc1cc(-c2[nH]c3cc(C4CCC5(C4)CN(CC(N)=O)C5)sc3c2C(C)C)cn2ncnc12` (racemic) [Example 295, 2-(6-(6-Isopropyl-5-(8-methyl-[1,2,4]triazolo[1,5-a]pyridin-6-yl)-4H-thieno[3,2-b]pyrrol-2-yl)-2-azaspiro[3.4]octan-2-yl)acetamide]: the negative logarithm of the EC50 (pEC50) is 9.85 at TLR7 and 8.92 at TLR8.
With `Cc1cc(-c2[nH]c3cc(C4CCC5(C4)CN(CC(N)=O)C5)sc3c2C(C)C)cn2ncnc12` (single isomer, unassigned) [Example 310, 2-(6-(6-Isopropyl-5-(8-methyl-[1,2,4]triazolo[1,5-a]pyridin-6-yl)-4H-thieno[3,2-b]pyrrol-2-yl)-2-azaspiro[3.4]octan-2-yl)acetamide], the figures for the negative logarithm of the EC50 (pEC50) on TLR7 and on TLR8 were 9.74 and 8.87, respectively.
As to `Cc1cc(-c2[nH]c3cc(C4CCC5(C4)CN(CC(N)=O)C5)sc3c2C(C)C)cn2ncnc12` (single isomer, unassigned) [Example 311, 2-(6-(6-Isopropyl-5-(8-methyl-[1,2,4]triazolo[1,5-a]pyridin-6-yl)-4H-thieno[3,2-b]pyrrol-2-yl)-2-azaspiro[3.4]octan-2-yl)acetamide], the pEC50 was 9.24 at TLR7 and 8.74 on TLR8.
Taken in the same sequence, the figures for `Cc1cc(-c2[nH]c3cc(C(=O)N4CCNCC4)sc3c2C(C)C)cc(C)n1` [Example 1, [5-(2,6-dimethyl-4-pyridyl)-6-isopropyl-4H-thieno[3,2-b]pyrrol-2-yl]-piperazin-1-yl-methanone] were 7.61 and 7.70.
For `Cc1cc(-c2[nH]c3cc(C(=O)N4CCC(N)CC4)sc3c2C(C)C)cc(C)n1` [Example 2] the same measures were 7.43 and 7.50.
Taken in the same sequence, the figures for `Cc1cc(-c2[nH]c3cc(C(=O)NC4CCNCC4)sc3c2C(C)C)cc(C)n1` [Example 4] were 6.23 and 6.23.
For `Cc1cc(-c2[nH]c3cc(C(=O)N[C@@H]4CCNC4)sc3c2C(C)C)cc(C)n1` [Example 5], the negative logarithm of the EC50 (pEC50) at TLR7 is less than 6.00; at TLR8, 6.18.
For `Cc1cc(-c2[nH]c3cc(C(=O)N[C@H]4CCNC4)sc3c2C(C)C)cc(C)n1` [Example 6] the same measures were 6.05 and less than 6.00.
On to `Cc1cc(-c2[nH]c3cc(C(=O)N4CC[C@H](N)C4)sc3c2C(C)C)cc(C)n1` [Example 7], for which the figures for the pEC50 on TLR7 and on TLR8 were 6.96 and 7.46, respectively.
For `Cc1cc(-c2[nH]c3cc(C(=O)N4CC[C@@H](N)C4)sc3c2C(C)C)cc(C)n1` [Example 8] the same measures were 7.17 and 7.57.
Taken in the same sequence, the figures for `Cc1cc(-c2[nH]c3cc(C(=O)N4CCNC(C#N)C4)sc3c2C(C)C)cc(C)n1` (centres unmarked) [Example 9] were 6.20 and 6.43.
For `Cc1cc(-c2[nH]c3cc(C(=O)N(C)C4CCNCC4)sc3c2C(C)C)cc(C)n1` [Example 10] the same measures were 7.74 and 7.26.
`Cc1cc(-c2[nH]c3cc(C(=O)N4CCC[C@H](N)C4)sc3c2C(C)C)cc(C)n1` [Example 11]: the pEC50 at TLR7 was 7.54; at TLR8, 6.98.
For `Cc1cc(-c2[nH]c3cc(C(=O)N4CCC[C@@H](N)C4)sc3c2C(C)C)cc(C)n1` [Example 12], the pEC50 at TLR7 was 7.37; on TLR8, 7.18.
With `Cc1cc(-c2[nH]c3cc(C(=O)N4CC[C@H](F)[C@@H](N)C4)sc3c2C(C)C)cc(C)n1` [Example 26], on TLR7, the pEC50 was 6.99.
Still for that read-out and setting: as for `Cc1cc(-c2[nH]c3cc(C(=O)N4CCC[C@H](N)[C@@H]4C)sc3c2C(C)C)cc(C)n1` [Example 33], the figure is 7.95.
Same read-out and setting: then `Cc1cc(-c2[nH]c3cc(C(=O)N4CC[C@H](N)C4)sc3c2C(C)C)cn(C)c1=O` [Example 35], with 6.62; and `Cc1cc(-c2[nH]c3cc(C(=O)N(C)C4CCNCC4(C)C)sc3c2C(C)C)cc(C)n1` (centres unmarked) [Example 37], with 7.99; and `Cc1cc(-c2[nH]c3cc(C(=O)N4CCN5CCOC[C@H]5C4)sc3c2C(C)C)cc(C)n1` [Example 41], with 6.17.
Still for that read-out and setting: then `Cc1cc(-c2[nH]c3cc(C(=O)N4CCN5CCOC[C@@H]5C4)sc3c2C(C)C)cc(C)n1` [Example 42], with 6.31.
Turning to `Cc1cc(-c2[nH]c3cc(C4CCC5(CCNC5)C4)sc3c2C(C)C)cn2ncnc12` (centres unmarked) [Example 278], the pEC50 at TLR8 is 7.98.
